Assay results: paper PMC5503785 (Journal of clinical pharmacology, 2017)
Where two headings read alike, the source gives them in different places.

Assays:
PARP [1] = details: cited from earlier work
[2] = type: in vivo, human; details: for ω CLR/F (L·h^−1): between-subject variability; for increase in veliparib exposure: covariate model
[3] = PBPK simulations, cited from earlier work
PARP [4] = details: phase 0 study, single dose of veliparib; cited from earlier work
CYP2D6 = details: in vitro study; cited from earlier work
PARP [5] = tested on: PARP
[6] = fixed in model; fraction renally excreted; cited from earlier work
[7] = cited from earlier work
[8] = bootstrap median, 250 replicates
[9] = analysis by Li et al, one-compartment model
[10] = population PK analysis by Salem et al, one-compartment model
[11] = previously reported, based on NCA

Structure (SMILES): CC1(c2nc3c(C(N)=O)cccc3[nH]2)CCC(=O)N1 (centres unmarked) [M8]
- potency compared to veliparib (fold less potent) (PARP [1]): approximately 5 fold
- CLmet [2, 8]: 22.7 L/h
- Qmet [2, 8]: 29.0 L/h
- Vc_met [2, 8]: 23.5 L
- Vp_met [2, 8]: 51.3 L
- CLmet ([2]; final model estimate): 22.8 L/h
- Qmet ([2]; final model estimate): 29.0 L/h
- Vc_met ([2]; final model estimate, metabolite central volume): 23.6 L
- Vp_met ([2]; final model estimate, metabolite peripheral volume): 51.4 L

Structure (SMILES): C[C@]1(c2nc3c(C(N)=O)cccc3[nH]2)CCCN1 [veliparib, 2-[(R)-2-methylpyrrolidin-2-yl]-1H-benzimidazole-4-carboxamide]
- higher exposure versus extensive metabolizers ([3]; CYP2D6 poor metabolizers (PM)): ~ 20%
- lower exposure versus extensive metabolizers ([3]; CYP2D6 ultra-extensive metabolizers (UM)): ~ 20%
- inhibition of PAR levels in PBMC (PARP [4]): Significant inhibition
- share of overall veliparib metabolism accounted for by CYP2D6 (CYP2D6): ~ 72%
- Inhibition of PAR compared with pre-dose baseline (PARP [5]; 50/50 mg dose level b.i.d., PBMC): ~ 50%
- Inhibition of PARP compared with pre-dose baseline (PARP [5]; 500/500 mg dose level b.i.d., PBMC): ~ 70%
- IC50 for PAR reduction (Emax model, veliparib plasma concentration as driver) (PARP [5]; PBMC, estimated with low precision): 0.03 µg/mL
- inhibition of PAR levels in PBMCs (PARP [5]; dose levels ranging from 50 to 500 mg): At least 50%
- frenal [6]: 0.7 (fix)
- expected "true" fraction converted to M8 ([2]; 30% non-renal elimination * 72% CYP2D6 share): 22%
- accumulation on chronic dosing ([2]; NCA approach, within dose range tested (50 to 500 mg b.i.d.)): Negligible accumulation
- ω CLR/F (L·h^−1) ([2]; bootstrap median): 34.7%
- ω CLR/F (L·h^−1) ([2]; final model estimate): 34.7%
- CL/F [2, 8]: 17.3 L/h
- Ka [2, 8]: 2.02 h⁻¹
- LBM effect on Vc/F, power_LBM [2, 8]: 1.21
- Q/F [2, 8]: 17.9 L/h
- Vc/F [2, 8]: 99.1 L
- Vp/F [2, 8]: 47.5 L
- tlag [2, 8]: 0.270 h
- increase in veliparib exposure ([2]; mild renal function impairment (~25% decrease in CLCR)): ~ 10%
- increase in veliparib exposure ([2]; moderate renal function impairment (~50% decrease in CLCR)): ~ 20%
- dose proportionality ([2]; dose level from 50 to 500 mg): supported
- Q/F ([2]; final model estimate): 17.9 L/h
- tlag ([2]; final model estimate): 0.272 h
- LBM effect on Vc/F, power_LBM ([2]; final model estimate, covariate exponent): 1.21
- Vc/F (central volume of distribution) ([2]; final model estimate, typical subject LBM 48 kg): 99.2 L
- CL/F (total clearance, CLR/F + CLNR/F) ([2]; final model estimate, typical subject LBM 48 kg, CLCR 95 mL/min): 17.3 L/h
- Ka ([2]; final population PK model estimate, oral veliparib): 2.02 h⁻¹
- fm ([2]; fixed in model, fraction metabolized to M8 assumed as 1−frenal): 0.3 (fix)
- Vd/F ([2]; human, plasma, oral, Vd/F (=Vc/F+ Vp/F), final model, standardized to 48 kg LBM and 95 mL/min CLCR): 147 L
- contribution of CYP2D6 metabolism to veliparib total clearance ([2]; worked out from non-renal fraction and CYP2D6 share): ~ 22%
- CL/F [7, 9]: 13.3 L/h
- Vd/F [7, 9]: 126 L
- CL/F [7, 10]: 20.9 L/h
- Vd/F [7, 10]: 173 L
- CL/F [7, 11]: 18 L/h
- Vd/F [7, 11]: 145 L
